{"source": "patent US20250034136A1", "about": "(Nimbus Wadjet, Inc., priority 2023, published 2025)", "key": {"[1]": {"biological_target": "WRN (BV08), human Werner helicase (Uniprot Q14191, amino acids 517-1235 with L1074F point mutation) (Homo sapiens (Human), UniProt Q14191, L1074F)", "sequence (Q14191 other isoform, or with tags, fused parts or gaps L1074F (already in the parent))": "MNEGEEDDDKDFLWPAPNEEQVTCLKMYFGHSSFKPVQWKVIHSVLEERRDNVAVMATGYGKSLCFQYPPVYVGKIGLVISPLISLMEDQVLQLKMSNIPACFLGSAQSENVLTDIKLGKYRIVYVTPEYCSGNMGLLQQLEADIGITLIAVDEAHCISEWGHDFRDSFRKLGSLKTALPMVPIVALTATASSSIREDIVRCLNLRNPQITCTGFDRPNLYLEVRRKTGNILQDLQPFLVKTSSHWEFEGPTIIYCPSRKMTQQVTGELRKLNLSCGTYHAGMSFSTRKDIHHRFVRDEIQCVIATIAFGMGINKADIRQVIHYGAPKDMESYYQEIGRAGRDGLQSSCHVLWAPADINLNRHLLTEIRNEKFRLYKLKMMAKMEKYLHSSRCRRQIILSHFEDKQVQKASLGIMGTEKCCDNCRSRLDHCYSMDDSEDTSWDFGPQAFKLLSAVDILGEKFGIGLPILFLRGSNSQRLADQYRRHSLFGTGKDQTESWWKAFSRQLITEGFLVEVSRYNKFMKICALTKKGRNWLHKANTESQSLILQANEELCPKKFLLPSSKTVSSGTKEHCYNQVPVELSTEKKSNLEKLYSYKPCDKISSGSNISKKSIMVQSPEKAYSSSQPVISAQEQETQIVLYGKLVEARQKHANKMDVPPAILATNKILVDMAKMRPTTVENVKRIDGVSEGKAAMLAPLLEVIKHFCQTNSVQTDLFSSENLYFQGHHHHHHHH", "assay": "WRN (BV08) ADP-Glo assay", "assay_type": "biochemical", "settings": "class symbols A-E, read-out: ADP-Glo_hWRN_IC50"}, "[2]": {"test_system": "p21 induction in HCT116 cells", "assay": "p21 induction in HCT116 cells", "assay_type": "cell-based", "settings": "Homo sapiens, HCT-116, 24 h, HCT116 cells, 24 h compound incubation; read-out: P21_EC50", "summary_of_the_method": "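EC50 from non-linear curve fit of p21 immunofluorescence (800 nm), with GAPDH (700 nm) read alongside. DMSO and a reference WRN inhibitor served as low and high controls. Cells (2,000/well) got 11 compound concentrations in duplicate for 24 h at 37 °C.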"}}}
{"molecule": "CCc1c(N2CCN(C(=O)c3ncnc(C)c3O)CC2)c(=O)c2nc(N3CC(O)C3)cnc2n1CC(=O)Nc1ccc(C(F)(F)F)cc1Cl", "note": "[I-45, N-(2-chloro-4-(trifluoromethyl)phenyl)-2-(6-ethyl-7-(4-(5-hydroxy-6-methylpyrimidine-4-carbonyl)piperazin-1-yl)-2-(3-hydroxyazetidin-1-yl)-8-oxopyrido[2,3-b]pyrazin-5(8H)-yl)acetamide]", "values": [{"measurement": "IC50", "setting": "[1]", "value": "0.005 to 0.05", "unit": "µM"}, {"measurement": "EC50", "setting": "[2]", "value": "> 5", "unit": "µM"}]}
{"molecule": "CCc1c(N2CCN(C(=O)c3ncnc(C)c3O)CC2)c(=O)c2nccnc2n1CC(=O)Nc1ccc(C(F)(F)F)cc1Cl", "note": "[I-46, N-(2-chloro-4-(trifluoromethyl)phenyl)-2-(6-ethyl-7-(4-(5-hydroxy-6-methylpyrimidine-4-carbonyl)piperazin-1-yl)-8-oxopyrido[2,3-b]pyrazin-5(8H)-yl)acetamide]", "values": [{"measurement": "IC50", "setting": "[1]", "value": "0.005 to 0.05", "unit": "µM"}, {"measurement": "EC50", "setting": "[2]", "value": "> 5", "unit": "µM"}]}
{"molecule": "CCc1c(N2CCN(C(=O)c3ncnc(C)c3O)CC2)c(=O)c2nc(N3CCC(C)(O)C3)cnc2n1CC(=O)Nc1ccc(C(F)(F)F)cc1Cl", "note": "(stereo not shown) [I-47, N-(2-chloro-4-(trifluoromethyl)phenyl)-2-(6-ethyl-2-(3-hydroxy-3-methylpyrrolidin-1-yl)-7-(4-(5-hydroxy-6-methylpyrimidine-4-carbonyl)piperazin-1-yl)-8-oxopyrido[2,3-b]pyrazin-5(8H)-yl)acetamide]", "values": [{"measurement": "IC50", "setting": "[1]", "value": "0.005 to 0.05", "unit": "µM"}, {"measurement": "EC50", "setting": "[2]", "value": "> 5", "unit": "µM"}]}
{"molecule": "CCc1c(N2CCN(C(=O)c3ncnc(C)c3O)CC2)c(=O)c2nc(C(=O)N(C)C)cnc2n1CC(=O)Nc1ccc(C(F)(F)F)cc1Cl", "note": "[I-48, 5-(2-((2-chloro-4-(trifluoromethyl)phenyl)amino)-2-oxoethyl)-6-ethyl-7-(4-(5-hydroxy-6-methylpyrimidine-4-carbonyl)piperazin-1-yl)-N,N-dimethyl-8-oxo-5,8-dihydropyrido[2,3-b]pyrazine-2-carboxamide]", "values": [{"measurement": "IC50", "setting": "[1]", "value": "0.1 to 0.5", "unit": "µM"}, {"measurement": "EC50", "setting": "[2]", "value": "> 5", "unit": "µM"}]}
{"molecule": "CCc1c(N2CCN(C(=O)c3ncnc(C)c3O)CC2)c(=O)c2nc(CN3CCOCC3)cnc2n1CC(=O)Nc1ccc(C(F)(F)F)cc1Cl", "note": "[I-49, N-(2-chloro-4-(trifluoromethyl)phenyl)-2-(6-ethyl-7-(4-(5-hydroxy-6-methylpyrimidine-4-carbonyl)piperazin-1-yl)-2-(morpholinomethyl)-8-oxopyrido[2,3-b]pyrazin-5(8H)-yl)acetamide]", "values": [{"measurement": "IC50", "setting": "[1]", "value": "0.05 to 0.1", "unit": "µM"}, {"measurement": "EC50", "setting": "[2]", "value": "> 5", "unit": "µM"}]}
{"molecule": "CCc1c(N2CCN(C(=O)c3ncnc(C)c3O)CC2)c(=O)c2nc(C(N)=O)cnc2n1CC(=O)Nc1ccc(C(F)(F)F)cc1Cl", "note": "[I-50, 5-(2-((2-chloro-4-(trifluoromethyl)phenyl)amino)-2-oxoethyl)-6-ethyl-7-(4-(5-hydroxy-6-methylpyrimidine-4-carbonyl)piperazin-1-yl)-8-oxo-5,8-dihydropyrido[2,3-b]pyrazine-2-carboxamide]", "values": [{"measurement": "IC50", "setting": "[1]", "value": "0.05 to 0.1", "unit": "µM"}, {"measurement": "EC50", "setting": "[2]", "value": "> 5", "unit": "µM"}]}
{"molecule": "CCc1c(N2CCN(C(=O)c3c(O)ccnc3OC)CC2)c(=O)c2nc(N(C)C)cnc2n1CC(=O)Nc1ccc(C(F)(F)F)cc1Cl", "note": "[I-51, N-(2-chloro-4-(trifluoromethyl)phenyl)-2-(2-(dimethylamino)-6-ethyl-7-(4-(4-hydroxy-2-methoxynicotinoyl)piperazin-1-yl)-8-oxopyrido[2,3-b]pyrazin-5(8H)-yl)acetamide]", "values": [{"measurement": "IC50", "setting": "[1]", "value": "0.005 to 0.05", "unit": "µM"}, {"measurement": "EC50", "setting": "[2]", "value": "< 0.5", "unit": "µM"}]}
{"molecule": "CCc1c(N2CCN(C(=O)c3ncnc(C)c3O)CC2)c(=O)c2nc(N3CCOCC3)cnc2n1CC(=O)Nc1ccc(C(F)(F)F)cc1Cl", "note": "[I-52, N-(2-chloro-4-(trifluoromethyl)phenyl)-2-(6-ethyl-7-(4-(5-hydroxy-6-methylpyrimidine-4-carbonyl)piperazin-1-yl)-2-morpholino-8-oxopyrido[2,3-b]pyrazin-5(8H)-yl)acetamide]", "values": [{"measurement": "IC50", "setting": "[1]", "value": "0.005 to 0.05", "unit": "µM"}, {"measurement": "EC50", "setting": "[2]", "value": "> 5", "unit": "µM"}]}
{"molecule": "CCc1c(N2CCN(C(=O)c3ncnc(C)c3O)CC2)c(=O)c2nc(N3CCC3)cnc2n1CC(=O)Nc1ccc(C(F)(F)F)cc1Cl", "note": "[I-53, 2-(2-(azetidin-1-yl)-6-ethyl-7-(4-(5-hydroxy-6-methylpyrimidine-4-carbonyl)piperazin-1-yl)-8-oxopyrido[2,3-b]pyrazin-5(8H)-yl)-N-(2-chloro-4-(trifluoromethyl)phenyl)acetamide]", "values": [{"measurement": "IC50", "setting": "[1]", "value": "0.005 to 0.05", "unit": "µM"}, {"measurement": "EC50", "setting": "[2]", "value": "0.5 to 2", "unit": "µM"}]}
{"molecule": "CCc1c(N2CCN(C(=O)c3ncnc(C)c3O)CC2)c(=O)c2nc(C(=O)NC)cnc2n1CC(=O)Nc1ccc(C(F)(F)F)cc1Cl", "note": "[I-54, 5-(2-((2-chloro-4-(trifluoromethyl)phenyl)amino)-2-oxoethyl)-6-ethyl-7-(4-(5-hydroxy-6-methylpyrimidine-4-carbonyl)piperazin-1-yl)-N-methyl-8-oxo-5,8-dihydropyrido[2,3-b]pyrazine-2-carboxamide]", "values": [{"measurement": "IC50", "setting": "[1]", "value": "0.1 to 0.5", "unit": "µM"}, {"measurement": "EC50", "setting": "[2]", "value": "> 5", "unit": "µM"}]}
{"molecule": "CCc1c(N2CCN(C(=O)c3ncnc(C)c3O)CC2)c(=O)c2nc(/C=C/COC)cnc2n1CC(=O)Nc1ccc(C(F)(F)F)cc1Cl", "note": "[I-55, (E)-N-(2-chloro-4-(trifluoromethyl)phenyl)-2-(6-ethyl-7-(4-(5-hydroxy-6-methylpyrimidine-4-carbonyl)piperazin-1-yl)-2-(3-methoxyprop-1-en-1-yl)-8-oxopyrido[2,3-b]pyrazin-5(8H)-yl)acetamide]", "values": [{"measurement": "IC50", "setting": "[1]", "value": "0.005 to 0.05", "unit": "µM"}, {"measurement": "EC50", "setting": "[2]", "value": "0.5 to 2", "unit": "µM"}]}
{"molecule": "CCc1c(N2CCN(C(=O)c3ncnc(C)c3O)CC2)c(=O)c2nc(N3CC[C@@H](O)C3)cnc2n1CC(=O)Nc1ccc(C(F)(F)F)cc1Cl", "note": "[I-56, (R)-N-(2-chloro-4-(trifluoromethyl)phenyl)-2-(6-ethyl-7-(4-(5-hydroxy-6-methylpyrimidine-4-carbonyl)piperazin-1-yl)-2-(3-hydroxypyrrolidin-1-yl)-8-oxopyrido[2,3-b]pyrazin-5(8H)-yl)acetamide]", "values": [{"measurement": "IC50", "setting": "[1]", "value": "0.005 to 0.05", "unit": "µM"}, {"measurement": "EC50", "setting": "[2]", "value": "> 5", "unit": "µM"}]}
{"molecule": "CCc1c(N2CCN(C(=O)c3ncnc(C)c3O)[C@H](C)C2)c(=O)c2nc(N(C)C)cnc2n1CC(=O)Nc1ccc(C(F)(F)F)cc1Cl", "note": "[I-57, (R)-N-(2-chloro-4-(trifluoromethyl)phenyl)-2-(2-(dimethylamino)-6-ethyl-7-(4-(5-hydroxy-6-methylpyrimidine-4-carbonyl)-3-methylpiperazin-1-yl)-8-oxopyrido[2,3-b]pyrazin-5(8H)-yl)acetamide]", "values": [{"measurement": "IC50", "setting": "[1]", "value": "0.005 to 0.05", "unit": "µM"}, {"measurement": "EC50", "setting": "[2]", "value": "0.5 to 2", "unit": "µM"}]}
{"molecule": "CCc1c(N2CCN(C(=O)c3ncnc(C)c3O)CC2)c(=O)c2nc(N(C)C3CC3)cnc2n1CC(=O)Nc1ccc(C(F)(F)F)cc1Cl", "note": "[I-58, N-(2-chloro-4-(trifluoromethyl)phenyl)-2-(2-(cyclopropyl(methyl)amino)-6-ethyl-7-(4-(5-hydroxy-6-methylpyrimidine-4-carbonyl)piperazin-1-yl)-8-oxopyrido[2,3-b]pyrazin-5(8H)-yl)acetamide]", "values": [{"measurement": "IC50", "setting": "[1]", "value": "0.005 to 0.05", "unit": "µM"}, {"measurement": "EC50", "setting": "[2]", "value": "< 0.5", "unit": "µM"}]}
{"molecule": "CCc1c(N2CCN(C(=O)c3ncnc(C)c3O)CC2)c(=O)c2nc(N(C)C3CC(C)(O)C3)cnc2n1CC(=O)Nc1ccc(C(F)(F)F)cc1Cl", "note": "(stereo not shown) [I-59, N-(2-chloro-4-(trifluoromethyl)phenyl)-2-(6-ethyl-2-((3-hydroxy-3-methylcyclobutyl)(methyl)amino)-7-(4-(5-hydroxy-6-methylpyrimidine-4-carbonyl)piperazin-1-yl)-8-oxopyrido[2,3-b]pyrazin-5(8H)-yl)acetamide]", "values": [{"measurement": "IC50", "setting": "[1]", "value": "0.005 to 0.05", "unit": "µM"}, {"measurement": "EC50", "setting": "[2]", "value": "2 to 5", "unit": "µM"}]}
{"molecule": "CCc1c(N2CCN(C(=O)c3ncnc(C)c3O)CC2)c(=O)c2nc(N(C)C3CC(OC)C3)cnc2n1CC(=O)Nc1ccc(C(F)(F)F)cc1Cl", "note": "(stereo not shown) [I-60, N-(2-chloro-4-(trifluoromethyl)phenyl)-2-(6-ethyl-7-(4-(5-hydroxy-6-methylpyrimidine-4-carbonyl)piperazin-1-yl)-2-((3-methoxycyclobutyl)(methyl)amino)-8-oxopyrido[2,3-b]pyrazin-5(8H)-yl)acetamide]", "values": [{"measurement": "IC50", "setting": "[1]", "value": "0.005 to 0.05", "unit": "µM"}, {"measurement": "EC50", "setting": "[2]", "value": "0.5 to 2", "unit": "µM"}]}
{"molecule": "CCc1c(N2CCN(C(=O)c3ncnc(C)c3O)CC2)c(=O)c2nc3cc(C)sc3nc2n1CC(=O)Nc1ccc(C(F)(F)F)cc1Cl", "note": "[I-61, N-(2-chloro-4-(trifluoromethyl)phenyl)-2-(7-ethyl-6-(4-(5-hydroxy-6-methylpyrimidine-4-carbonyl)piperazin-1-yl)-2-methyl-5-oxopyrido[2,3-b]thieno[3,2-e]pyrazin-8(5H)-yl)acetamide]", "values": [{"measurement": "IC50", "setting": "[1]", "value": "0.005 to 0.05", "unit": "µM"}, {"measurement": "EC50", "setting": "[2]", "value": "< 0.5", "unit": "µM"}]}
{"molecule": "CCc1c(N2CCN(C(=O)c3c(F)cnc(OC)c3O)CC2)c(=O)c2ncc(C)nc2n1CC(=O)Nc1ccc(C(F)(F)F)cc1Cl", "note": "[I-62, N-(2-chloro-4-(trifluoromethyl)phenyl)-2-(6-ethyl-7-(4-(5-fluoro-3-hydroxy-2-methoxyisonicotinoyl)piperazin-1-yl)-3-methyl-8-oxopyrido[2,3-b]pyrazin-5(8H)-yl)acetamide]", "values": [{"measurement": "IC50", "setting": "[1]", "value": "0.005 to 0.05", "unit": "µM"}, {"measurement": "EC50", "setting": "[2]", "value": "> 5", "unit": "µM"}]}
{"molecule": "CCc1c(N2CCN(C(=O)c3ncnc(C)c3O)CC2)c(=O)c2nc(-c3cnn(C)c3)c(C)nc2n1CC(=O)Nc1ccc(C(F)(F)F)cc1Cl", "note": "[I-63, N-(2-chloro-4-(trifluoromethyl)phenyl)-2-(6-ethyl-7-(4-(5-hydroxy-6-methylpyrimidine-4-carbonyl)piperazin-1-yl)-3-methyl-2-(1-methyl-1H-pyrazol-4-yl)-8-oxopyrido[2,3-b]pyrazin-5(8H)-yl)acetamide]", "values": [{"measurement": "IC50", "setting": "[1]", "value": "0.005 to 0.05", "unit": "µM"}, {"measurement": "EC50", "setting": "[2]", "value": "> 5", "unit": "µM"}]}
{"molecule": "CCc1c(N2CCN(C(=O)c3ncnc(C)c3O)CC2)c(=O)c2nc(C)c(C)nc2n1CC(=O)Nc1ccc(C(F)(F)F)cc1Cl", "note": "[I-64, N-(2-chloro-4-(trifluoromethyl)phenyl)-2-(6-ethyl-7-(4-(5-hydroxy-6-methylpyrimidine-4-carbonyl)piperazin-1-yl)-2,3-dimethyl-8-oxopyrido[2,3-b]pyrazin-5(8H)-yl)acetamide]", "values": [{"measurement": "IC50", "setting": "[1]", "value": "0.005 to 0.05", "unit": "µM"}, {"measurement": "EC50", "setting": "[2]", "value": "0.5 to 2", "unit": "µM"}]}
